The record followed here is patent US12492188B2, “1H-benzo[D]imidazole derivatives as TLR9 inhibitors for the treatment of fibrosis” (BRISTOL-MYERS SQUIBB COMPANY, priority 2020, dated 2025).

Format in all cases: cell-based
In one assay the target is T1, human TLR9 (Homo sapiens, UniProt Q9NR96).
T1 construct: host or cells: HEK-Blue cells (HEK293-derived reporter line)
T1 sequence (Q9NR96 26-1032): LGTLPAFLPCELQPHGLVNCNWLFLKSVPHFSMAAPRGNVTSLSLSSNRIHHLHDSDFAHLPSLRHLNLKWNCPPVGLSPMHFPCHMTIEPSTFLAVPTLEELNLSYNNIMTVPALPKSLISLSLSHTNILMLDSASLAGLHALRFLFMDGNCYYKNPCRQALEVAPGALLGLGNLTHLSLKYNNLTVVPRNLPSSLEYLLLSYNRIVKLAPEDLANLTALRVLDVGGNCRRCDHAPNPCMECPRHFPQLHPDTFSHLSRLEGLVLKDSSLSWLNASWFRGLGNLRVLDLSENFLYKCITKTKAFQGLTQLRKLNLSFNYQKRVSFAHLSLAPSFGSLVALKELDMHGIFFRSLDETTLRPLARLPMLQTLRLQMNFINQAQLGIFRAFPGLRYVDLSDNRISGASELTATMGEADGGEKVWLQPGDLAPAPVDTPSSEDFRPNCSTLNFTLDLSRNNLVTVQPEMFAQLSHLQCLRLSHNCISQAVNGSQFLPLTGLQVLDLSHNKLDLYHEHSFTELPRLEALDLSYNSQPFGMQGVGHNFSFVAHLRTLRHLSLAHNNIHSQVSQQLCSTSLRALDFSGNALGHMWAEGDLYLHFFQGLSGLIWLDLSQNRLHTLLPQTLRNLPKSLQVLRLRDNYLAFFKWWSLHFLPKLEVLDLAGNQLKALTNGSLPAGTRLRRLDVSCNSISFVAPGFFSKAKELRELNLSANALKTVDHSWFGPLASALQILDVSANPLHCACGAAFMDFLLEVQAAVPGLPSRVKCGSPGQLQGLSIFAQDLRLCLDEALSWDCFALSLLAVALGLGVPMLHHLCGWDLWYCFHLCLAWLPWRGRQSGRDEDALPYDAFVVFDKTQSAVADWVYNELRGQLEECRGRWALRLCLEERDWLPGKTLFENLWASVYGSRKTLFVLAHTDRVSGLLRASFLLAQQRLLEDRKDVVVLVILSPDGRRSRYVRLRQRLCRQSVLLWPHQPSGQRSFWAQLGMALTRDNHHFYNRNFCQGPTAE
Kind of assay: TLR9 inhibition reporter assay (HEK-Blue cells, secreted embryonic alkaline phosphatase reporter). In outline: (§1)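 Read-out is SEAP colour from HEK-Blue Detection medium after 22 h at 37 °C, converted to percent inhibition between agonist-plus-DMSO and reference-inhibitor wells. Receptor-overexpressing HEK-Blue cells received compound over 0.05 nM–50 μM for 30 min before agonist: gardiquimod 7.5 μM for TLR7, R848 15.9 μM for TLR8, ODN2006 5 nM for TLR9.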

Another assay deals with T2, human TLR7 (Homo sapiens, UniProt Q9NYK1).
T2 construct: host or cells: HEK-Blue cells (HEK293-derived reporter line)
T2 sequence (Q9NYK1 27-1049): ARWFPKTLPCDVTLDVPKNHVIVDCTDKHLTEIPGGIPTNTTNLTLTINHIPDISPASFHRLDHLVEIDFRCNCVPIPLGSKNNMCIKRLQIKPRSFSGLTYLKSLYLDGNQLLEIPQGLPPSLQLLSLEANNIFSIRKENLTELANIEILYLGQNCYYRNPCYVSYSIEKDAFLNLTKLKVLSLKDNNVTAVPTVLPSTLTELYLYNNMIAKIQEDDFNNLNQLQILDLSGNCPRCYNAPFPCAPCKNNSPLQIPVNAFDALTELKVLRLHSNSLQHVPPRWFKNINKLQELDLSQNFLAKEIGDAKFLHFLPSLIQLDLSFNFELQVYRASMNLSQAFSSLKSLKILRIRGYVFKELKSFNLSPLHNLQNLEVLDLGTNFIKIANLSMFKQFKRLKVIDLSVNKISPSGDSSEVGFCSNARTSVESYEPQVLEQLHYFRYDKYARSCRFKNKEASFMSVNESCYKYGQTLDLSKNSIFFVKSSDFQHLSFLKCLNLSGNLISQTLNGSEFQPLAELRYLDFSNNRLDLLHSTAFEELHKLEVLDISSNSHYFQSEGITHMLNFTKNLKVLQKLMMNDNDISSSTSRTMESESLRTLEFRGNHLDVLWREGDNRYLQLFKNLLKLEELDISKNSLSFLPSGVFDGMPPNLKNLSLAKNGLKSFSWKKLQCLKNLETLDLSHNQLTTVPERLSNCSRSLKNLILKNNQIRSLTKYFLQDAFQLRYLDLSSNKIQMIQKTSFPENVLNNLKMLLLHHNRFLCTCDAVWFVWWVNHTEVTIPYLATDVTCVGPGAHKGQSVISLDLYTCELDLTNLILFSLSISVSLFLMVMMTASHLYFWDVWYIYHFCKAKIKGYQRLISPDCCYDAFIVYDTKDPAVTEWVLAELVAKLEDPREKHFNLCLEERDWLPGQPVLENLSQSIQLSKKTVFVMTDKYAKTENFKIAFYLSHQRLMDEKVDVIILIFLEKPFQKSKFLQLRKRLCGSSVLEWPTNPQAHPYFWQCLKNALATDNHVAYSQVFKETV
The experiment in a line: TLR7 inhibition reporter assay (HEK-Blue cells, secreted embryonic alkaline phosphatase reporter). The conditions noted are these: HEK-Blue cells overexpressing human TLR7, stimulated with gardiquimod 7.5 μM; read-out: TLR 7 IC50. In outline:
as §1
For orientation: In a reporter assay the amount or activity of a reporter protein is the signal.

For a further assay, the target named is T3, human TLR8 (Homo sapiens, UniProt Q9NR97).
T3 construct: host or cells: HEK-Blue cells (HEK293-derived reporter line)
T3 sequence (Q9NR97 27-1041): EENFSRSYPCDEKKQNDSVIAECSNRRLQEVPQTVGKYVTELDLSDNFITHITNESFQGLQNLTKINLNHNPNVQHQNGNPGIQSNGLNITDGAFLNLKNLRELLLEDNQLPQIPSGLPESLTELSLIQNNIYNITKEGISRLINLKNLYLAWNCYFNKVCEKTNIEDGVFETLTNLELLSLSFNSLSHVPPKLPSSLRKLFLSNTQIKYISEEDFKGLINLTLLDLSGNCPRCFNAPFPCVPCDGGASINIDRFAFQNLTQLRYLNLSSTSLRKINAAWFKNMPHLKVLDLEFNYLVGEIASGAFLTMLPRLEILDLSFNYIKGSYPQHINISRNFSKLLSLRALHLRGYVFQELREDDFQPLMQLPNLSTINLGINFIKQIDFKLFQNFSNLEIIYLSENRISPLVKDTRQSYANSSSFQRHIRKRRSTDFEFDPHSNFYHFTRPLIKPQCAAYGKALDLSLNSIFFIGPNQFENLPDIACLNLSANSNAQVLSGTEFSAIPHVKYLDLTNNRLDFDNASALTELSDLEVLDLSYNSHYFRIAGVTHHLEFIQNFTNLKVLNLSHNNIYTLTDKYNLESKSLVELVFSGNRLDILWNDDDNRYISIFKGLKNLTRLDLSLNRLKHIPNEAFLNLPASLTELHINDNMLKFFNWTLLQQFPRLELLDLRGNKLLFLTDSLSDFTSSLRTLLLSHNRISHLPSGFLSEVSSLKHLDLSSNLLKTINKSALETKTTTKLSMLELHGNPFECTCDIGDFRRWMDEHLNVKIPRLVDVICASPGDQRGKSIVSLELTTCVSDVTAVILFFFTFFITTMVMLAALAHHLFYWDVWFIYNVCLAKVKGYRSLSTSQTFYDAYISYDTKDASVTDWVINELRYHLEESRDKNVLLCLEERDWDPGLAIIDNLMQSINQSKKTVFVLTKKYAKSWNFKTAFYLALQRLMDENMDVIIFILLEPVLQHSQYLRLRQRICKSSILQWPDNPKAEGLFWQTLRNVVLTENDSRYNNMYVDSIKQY
The experiment in a line: TLR8 inhibition reporter assay (HEK-Blue cells, secreted embryonic alkaline phosphatase reporter). The conditions noted are these: HEK-Blue cells overexpressing human TLR8, stimulated with R848 15.9 μM; read-out: TLR 8 IC50. Put shortly:
as §1

[1] abbreviates: HEK-Blue cells overexpressing human TLR9, stimulated with ODN2006 5 nM, read-out: TLR 9 IC50.

The structures appear in SMILES notation. Like-named read-outs stand apart in the source and are kept apart here.

Usually IC50 stands for the concentration that gives 50% inhibition. `CC(C)CN1C2CCC1CC(N1CCC(c3ccc4nc(-c5ccc(S(C)(=O)=O)cc5)[nH]c4c3F)CC1)C2` (single isomer, unassigned) [Example 219, 7-fluoro-6-(1-(8-isobutyl-8-azabicyclo[3.2.1]octan-3-yl)piperidin-4-yl)-2-(4-(methylsulfonyl)phenyl)-1H-benzo[d]imidazole]: the IC50 is 65 nM against human TLR9, 65 nM at human TLR9 (setting [1]), 18500 nM at human TLR7 and more than 50000 nM at human TLR8.

For `CC(C)CN1C2CCC1CC(N1CCC(c3ccc4nc(-c5ccc(S(C)(=O)=O)cc5)[nH]c4c3F)CC1)C2` (single isomer, unassigned) [Example 220, 7-fluoro-6-(1-(8-isobutyl-8-azabicyclo[3.2.1]octan-3-yl)piperidin-4-yl)-2-(4-(methylsulfonyl)phenyl)-1H-benzo[d]imidazole], the IC50 at human TLR9 was 680 nM; on human TLR9 (setting [1]), 683 nM; on human TLR7, 41900 nM; at human TLR8 it was more than 50000 nM.

Take `CC(C)CN1C2CCC1CC(N1CCC(c3cc4c(cc3F)nc(-c3ccc(S(C)(=O)=O)cc3)n4C)CC1)C2` (single isomer, unassigned) [Example 228, 5-fluoro-6-(1-(8-isobutyl-8-azabicyclo[3.2.1]octan-3-yl)piperidin-4-yl)-1-methyl-2-(4-(methylsulfonyl)phenyl)-1H-benzo[d]imidazole]: the IC50 was 69 nM against human TLR9, 69 nM on human TLR9 (setting [1]), 1400 nM on human TLR7 and 16700 nM on human TLR8.

On to `CC(C)CN1C2CCC1CC(N1CCC(c3cc4c(cc3F)nc(-c3ccc(S(C)(=O)=O)cc3)n4C)CC1)C2` (single isomer, unassigned) [Example 229, 5-fluoro-6-(1-(8-isobutyl-8-azabicyclo[3.2.1]octan-3-yl)piperidin-4-yl)-1-methyl-2-(4-(methylsulfonyl)phenyl)-1H-benzo[d]imidazole], for which the IC50 is 95 nM against human TLR9, 95 nM at human TLR9 (setting [1]), 43200 nM at human TLR7 and more than 50000 nM on human TLR8.

As to `Cn1c(-c2ccc(S(C)(=O)=O)cc2)nc2cc(F)c(C3CCN(C4CC5CCC(C4)N5C4COC4)CC3)cc21` (single isomer, unassigned) [Example 234, 5-fluoro-1-methyl-2-(4-(methylsulfonyl)phenyl)-6-(1-(8-(oxetan-3-yl)-8-azabicyclo[3.2.1]octan-3-yl)piperidin-4-yl)-1H-benzo[d]imidazole], the IC50 was 150 nM on human TLR9, 152 nM on human TLR9 (setting [1]), more than 50000 nM on human TLR7 and more than 50000 nM at human TLR8.

With `Cn1c(-c2ccc(S(C)(=O)=O)cc2)nc2cc(F)c(C3CCN(C4CC5CCC(C4)N5C4COC4)CC3)cc21` (single isomer, unassigned) [Example 235, 5-fluoro-1-methyl-2-(4-(methylsulfonyl)phenyl)-6-(1-(8-(oxetan-3-yl)-8-azabicyclo[3.2.1]octan-3-yl)piperidin-4-yl)-1H-benzo[d]imidazole], the IC50 is 1700 nM on human TLR9, 1730 nM at human TLR9 (setting [1]), more than 50000 nM at human TLR7 and more than 50000 nM on human TLR8.

As to `COCCN1C2CCC1CC(N1CCC(c3cc4c(cc3F)nc(-c3ccc(S(C)(=O)=O)cc3)n4C)CC1)C2` (single isomer, unassigned) [Example 238, 5-fluoro-6-(1-(8-(2-methoxyethyl)-8-azabicyclo[3.2.1]octan-3-yl)piperidin-4-yl)-1-methyl-2-(4-(methylsulfonyl)phenyl)-1H-benzo[d]imidazole], the IC50 against human TLR9 was 58 nM; at human TLR9 (setting [1]), 58 nM; on human TLR7 it was 34600 nM; on human TLR8, more than 50000 nM.

For `COCCN1C2CCC1CC(N1CCC(c3cc4c(cc3F)nc(-c3ccc(S(C)(=O)=O)cc3)n4C)CC1)C2` (single isomer, unassigned) [Example 239, 5-fluoro-6-(1-(8-(2-methoxyethyl)-8-azabicyclo[3.2.1]octan-3-yl)piperidin-4-yl)-1-methyl-2-(4-(methylsulfonyl)phenyl)-1H-benzo[d]imidazole], the IC50 on human TLR9 is 290 nM; at human TLR9 (setting [1]), 290 nM; on human TLR7, not below 51200 nM; on human TLR8 it was more than 50000 nM.

Turning to `Cn1c(-c2ccc(S(C)(=O)=O)cc2)nc2cc(C3CCN(C4CC5CCC(C4)N5CC4CC4)CC3)c(F)cc21` (single isomer, unassigned) [Example 249, 5-(1-(8-(cyclopropylmethyl)-8-azabicyclo[3.2.1]octan-3-yl)piperidin-4-yl)-6-fluoro-1-methyl-2-(4-(methylsulfonyl)phenyl)-1H-benzo[d]imidazole], the half-inhibitory concentration (IC50) against human TLR9 was 32 nM; at human TLR9 (setting [1]) it was 32 nM; at human TLR7, 21500 nM; at human TLR8 it was more than 50000 nM.
